Data: patent US20080242726A1 (priority 2004, published 2008)

Experiments:
[1] = test system: serum cholesterol; assay: Effects on cholesterol levels in male baboons; assay type: in vivo; conditions: 1.5 mg/kg for 12 days
Excerpt: (§1) The samples analyzed were sera taken on the day of first treatment before being given test article (day 0), after 12 days of treatment (day 12) and 7 days after the last treatment (end or wash-out).

[2] = test system: total serum testosterone; assay: Effects of Clomids on serum testosterone in male baboons; assay type: in vivo; conditions: 1.5 mg/kg for 12 days
Excerpt: as §1

[3] = test system: total testosterone; assay: Comparison of Androxal to Androgel in hypogonadal men: total testosterone; assay type: in vivo; conditions: two weeks
Procedure: (§2) A placebo controlled challenge study was conducted at the Advanced Biological Research, Inc. (ABR) Clinical Research Center in Hackensack, N.J. to compare orally administered Androxal™ (trans-clomiphene) to Androgel® (testosterone) in hypogonadal men. Androgel® (Solvay Pharmaceuticals, Inc.) consists of a cream that administers exogenous testosterone in a transdermal matrix.
(§3) The study enrolled 62 hypogonadal men with testosterone levels less than 300 ng/dl (normal 298-1034 ng/dl) that were randomized into 6 different arms, three doses of Androxal™ (12.5 mg, 25 mg, and 50 mg), placebo, and both high and low doses of Androgel®. Half of the men in each of the Androxal™ and placebo arms were randomized into cohorts that underwent in-clinic sessions on days 1 and 14 to determine pharmacokinetic parameters for Androxal™ as well as cyclical changes in testosterone. The placebo and Androxal™ doses were administered in a double blind fashion. The Androgel® cream was administered in an open label fashion. Half of the Androgel® patients underwent in-clinic sessions similar to the other patients in the study. Following the two week drug exposure patients were followed for an additional seven to ten days to determine the status of their testosterone levels.

[4] = Comparison of Androxal to Androgel in hypogonadal men: side effects; assay type: in vivo; conditions: two week exposure, compared with placebo
Procedure: as §2, §3

[5] = Excerpt: as §1
[6] = test system: serum prolactin (PRL); assay: Effects on serum prolactin (PRL) in male baboons; assay type: in vivo; conditions: 1.5 mg/kg for 12 days
Excerpt: as §1

Row | SMILES | trend of serum cholesterol [1] | effect on total serum testosterone [2] | mean increase of testosterone from baseline ([3]; high dose 50 mg oral) | mean increase of testosterone from baseline ([3]; low dose 12.5 mg oral) | mean increase of testosterone from baseline ([3]; mid dose 25 mg oral) | side effects [4] | effect on platelets ([5]; 12-day treatment) | counts of eosinophiles ([5]; male baboons) | serum prolactin (PRL) during the study [6]
1 | CCN(CC)CCOc1ccc(C(=C(Cl)c2ccccc2)c2ccccc2)cc1 [Clomid, clomiphene] | slight increase | more variable total testosterone levels | – | – | – | – | – | – | –
2 | CCN(CC)CCOc1ccc(/C(=C(\Cl)c2ccccc2)c2ccccc2)cc1 [Enclomid, trans-clomiphene] | tended to decrease | significant increases | 294 ng/dL | 169 ng/dL | 247 ng/dL | no side effects | clear effect | raising the counts | decrease
3 | CCN(CC)CCOc1ccc(/C(=C(/Cl)c2ccccc2)c2ccccc2)cc1 [Zuclomid, cis-clomiphene] | tended to increase | did not raise total serum testosterone to any extent | – | – | – | – | – | – | –
